Data taken from patent publication US8791143B2, “Anthranilic diamide derivatives having cyclic side-chains” (priority 2010, dated 2014).
Where two headings read alike, the source gives them in different places.

Columns and labels:
[1] = test system: caterpillars of the armyworm (Spodoptera frugiperda); test: Spodoptera frugiperda test (SPODFR spray treatment); format: in vivo; settings: Spodoptera frugiperda, 168 h, read-out: activity in % (caterpillars killed)
[2] = log P by HPLC on reversed-phase columns (EEC Directive 79/831 Annex V.A8); format: physicochemical
[3] = test system: larvae of the mustard beetle (Phaedon cochleariae); test: Phaedon test (PHAECO spray treatment); settings: Phaedon cochleariae, 168 h, read-out: activity in % (beetle larvae killed)
[4] = application rate 100 g/ha, after 7 days
[5] = reversed-phase C18 HPLC column, pH 2.7, HPLC reversed-phase C18, acidic range pH 2.7 (HCOOH), only or first value of the cell, read-out: log P

chromatographic logP [2, 5] | Structure (SMILES) | pest or weed control at 100 g/ha [1] [%] | chromatographic logP ([2]; pH 2.7, log P) | pest or weed control at 100 g/ha [3] [%] | pest or weed control at 100 g/ha [1, 4] [%]
 | Cc1cc(C#N)cc(C(=O)NCc2ccc(Cl)nc2)c1NC(=O)c1cc(Cn2nnc(C(F)(F)F)n2)nn1-c1ncccc1Cl [Example 66] | 100 | 3.11 | 100 | 
3.91 | Cc1cc(C#N)cc(C(=O)NC(C)c2ccc(Cl)cc2)c1NC(=O)c1cc(Cn2nnc(C(F)(F)F)n2)nn1-c1ncccc1Cl (stereo not drawn) [Example 67] |  |  | 100 | 100
3.69 | Cc1cc(C#N)cc(C(=O)NCc2cccc(S(F)(F)(F)(F)F)c2)c1NC(=O)c1cc(Cn2nnnc2C(F)(F)F)nn1-c1ncccc1Cl [Example 68] |  |  | 100 | 100
3.77 | Cc1cc(C#N)cc(C(=O)NCc2ccccc2)c1NC(=O)c1cc(Cn2nnc(C(F)(F)F)n2)nn1-c1ccccc1Cl [Example 71] |  |  | 100 | 100
 | Cc1cc(Cl)cc(C(=O)Nc2ccc(Cl)cc2)c1NC(=O)c1cc(Cn2nnc(C(F)(F)F)n2)nn1-c1ncccc1Cl [Example 73] | 100 | 4.17 | 100 | 
3.68 | Cc1cc(C#N)cc(C(=O)NC(C)c2ccccc2)c1NC(=O)c1cc(Cn2nnc(C(F)(F)F)n2)nn1-c1ccccc1Cl (stereo not drawn) [Example 74] |  |  | 100 | 100
3.76 | Cc1cc(C#N)cc(C(=O)NCc2cccc(Cl)c2)c1NC(=O)c1cc(Cn2nnc(C(F)(F)F)n2)nn1-c1ccccc1Cl [Example 75] |  |  | 100 | 100
3.77 | COc1ccc(CNC(=O)c2cc(C#N)cc(C)c2NC(=O)c2cc(Cn3nnc(C(F)(F)F)n3)nn2-c2ccccc2Cl)cc1 [Example 76] |  |  | 100 | 100
4.42 | Cc1cc(C#N)cc(C(=O)NCc2ccc(Cl)cc2Cl)c1NC(=O)c1cc(Cn2nnc(C(F)(F)F)n2)nn1-c1ccccc1Cl [Example 77] |  |  | 100 | 100
 | Cc1cc(Cl)cc(C(=O)NCc2ccccc2)c1NC(=O)c1cc(Cn2nnc(C(F)(F)F)n2)nn1-c1ncccc1Cl [Example 81] | 100 | 3.77 | 100 | 
 | Cc1cc(Cl)cc(C(=O)NCc2ccccc2Cl)c1NC(=O)c1cc(Cn2nnc(C(F)(F)F)n2)nn1-c1ncccc1Cl [Example 82] | 100 | 4.06 | 100 | 
 | Cc1cc(Cl)cc(C(=O)NCc2ccccc2F)c1NC(=O)c1cc(Cn2nnc(C(F)(F)F)n2)nn1-c1ncccc1Cl [Example 83] | 100 | 3.77 | 100 | 
 | Cc1cc(Cl)cc(C(=O)NC(C)c2ccccc2)c1NC(=O)c1cc(Cn2nnc(C(F)(F)F)n2)nn1-c1ncccc1Cl (stereo not drawn) [Example 84] | 100 | 3.92 | 100 | 
 | Cc1cc(Cl)cc(C(=O)N[C@H](C)c2ccccc2)c1NC(=O)c1cc(Cn2nnc(C(F)(F)F)n2)nn1-c1ncccc1Cl [Example 85] | 100 | 3.92 | 100 | 
 | Cc1cccc(CNC(=O)c2cc(Cl)cc(C)c2NC(=O)c2cc(Cn3nnc(C(F)(F)F)n3)nn2-c2ncccc2Cl)c1 [Example 89] | 100 | 4.08 | 100 | 
4.85 | Cc1cc(Cl)cc(C(=O)NCc2ccc(C(C)(C)C)cc2)c1NC(=O)c1cc(Cn2nnc(C(F)(F)F)n2)nn1-c1ncccc1Cl [Example 91] |  |  | 100 | 100
 | Cc1cc(Cl)cc(C(=O)NCc2ccc(Cl)cc2Cl)c1NC(=O)c1cc(Cn2nnc(C(F)(F)F)n2)nn1-c1ncccc1Cl [Example 92] | 100 | 4.41 | 100 | 
 | Cc1cc(Cl)cc(C(=O)NCc2ccc(Cl)c(Cl)c2)c1NC(=O)c1cc(Cn2nnc(C(F)(F)F)n2)nn1-c1ncccc1Cl [Example 93] | 100 | 4.37 | 100 | 
 | Cc1cc(Cl)cc(C(=O)NCc2cc(Cl)cc(Cl)c2)c1NC(=O)c1cc(Cn2nnc(C(F)(F)F)n2)nn1-c1ncccc1Cl [Example 94] | 100 | 4.49 | 100 | 
4.23 | Cc1cc(Cl)cc(C(=O)NCc2cccc(C(F)(F)F)c2)c1NC(=O)c1cc(Cn2nnc(C(F)(F)F)n2)nn1-c1ncccc1Cl [Example 95] |  |  | 100 | 100
4.21 | Cc1cc(Cl)cc(C(=O)NCc2ccc(C(F)(F)F)cc2)c1NC(=O)c1cc(Cn2nnc(C(F)(F)F)n2)nn1-c1ncccc1Cl [Example 96] |  |  | 100 | 100
 | Cc1cc(Cl)cc(C(=O)NCc2cccc(F)c2)c1NC(=O)c1cc(Cn2nnc(C(F)(F)F)n2)nn1-c1ncccc1Cl [Example 98] | 100 | 3.79 | 100 | 
 | Cc1cc(Cl)cc(C(=O)NCc2ccc(F)cc2)c1NC(=O)c1cc(Cn2nnc(C(F)(F)F)n2)nn1-c1ncccc1Cl [Example 99] | 100 | 3.81 | 100 | 
 | COc1ccccc1CNC(=O)c1cc(Cl)cc(C)c1NC(=O)c1cc(Cn2nnc(C(F)(F)F)n2)nn1-c1ncccc1Cl [Example 100] | 100 | 3.94 | 100 | 
 | COc1cccc(CNC(=O)c2cc(Cl)cc(C)c2NC(=O)c2cc(Cn3nnc(C(F)(F)F)n3)nn2-c2ncccc2Cl)c1 [Example 101] | 100 | 3.81 | 100 | 
 | COc1ccc(CNC(=O)c2cc(Cl)cc(C)c2NC(=O)c2cc(Cn3nnc(C(F)(F)F)n3)nn2-c2ncccc2Cl)cc1 [Example 102] | 100 | 3.76 | 100 | 
4.34 | Cc1cc(Cl)cc(C(=O)NCc2ccccc2OC(F)(F)F)c1NC(=O)c1cc(Cn2nnc(C(F)(F)F)n2)nn1-c1ncccc1Cl [Example 103] |  |  | 100 | 100
4.36 | Cc1cc(Cl)cc(C(=O)NCc2cccc(OC(F)(F)F)c2)c1NC(=O)c1cc(Cn2nnc(C(F)(F)F)n2)nn1-c1ncccc1Cl [Example 104] |  |  | 100 | 100
 | Cc1cc(Cl)cc(C(=O)NCc2cccc(Cl)c2Cl)c1NC(=O)c1cc(Cn2nnc(C(F)(F)F)n2)nn1-c1ncccc1Cl [Example 105] | 100 | 4.37 | 100 | 
 | Cc1cc(Cl)cc(C(=O)NCc2cc(Cl)ccc2Cl)c1NC(=O)c1cc(Cn2nnc(C(F)(F)F)n2)nn1-c1ncccc1Cl [Example 106] | 100 | 4.39 | 100 | 
